The source of these data is BindingDB's records for doi:10.1021/ml5002757 (Therachem Research Medilab (India), 2014).

The experiment deals with Free fatty acid receptor 1 (Homo sapiens, UniProt O14842). Briefly: Modulation activity at human GPR40 expressed in HEK293 cells by IP-1 detection based HTRF assay.
Chain of Free fatty acid receptor 1 (O14842 whole entry): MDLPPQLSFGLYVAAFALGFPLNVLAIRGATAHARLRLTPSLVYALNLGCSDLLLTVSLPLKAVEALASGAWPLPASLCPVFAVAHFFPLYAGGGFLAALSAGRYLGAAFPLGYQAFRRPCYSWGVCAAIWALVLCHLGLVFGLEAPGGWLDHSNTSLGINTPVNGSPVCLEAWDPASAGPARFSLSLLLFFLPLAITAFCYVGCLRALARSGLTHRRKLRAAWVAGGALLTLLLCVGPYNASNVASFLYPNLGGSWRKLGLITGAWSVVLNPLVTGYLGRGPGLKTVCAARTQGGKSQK

As usually defined, the EC50 is the concentration that produces a half-maximal response. A lower EC50 goes with higher potency in that assay. Turning to `Cc1ccccc1Oc1ccc(N2N=C(C#N)CC2CC(=O)O)cc1` (stereo unspecified), it took 560 nM to reach a half-maximal effect (EC50). This lies in the sub-micromolar range.
